Experiments:
Assay in all cases: Post-emergence herbicidal test, % visual injury
Assay type in all cases: in vivo
Conditions in all cases: 336 h, 14±1 days post application; for pest or weed control at 500 g/ha: rate 500 g/ha; for pest or weed control at 250 g/ha: rate 250 g/ha
[1] = system: Amaranthus retroflexus (AMARE)
Description: (§1) Seeds of a variety of test species are grown in a sandy loam soil mixture, Lolium multiflorum (LOLMU), Amaranthus retroflexus (AMARE), Echinochloa crus-galli (ECHCG), Veronica persica (VERPE).
(§2) After sowing, at growth stage BBCH 12-14 (post-emergence), the plants are sprayed with an aqueous spray solution derived from the formulation of the technical active ingredient in acetone/water (50:50) solution containing 0.5% Tween 20 (polyoxyethlyene sorbitan monolaureate, CAS RN 9005-64-5). The test compounds are applied at the required concentration of active ingredient in g/ha. The test plants are then grown in a glasshouse under controlled environmental conditions and watered regularly as required. After 14±1 days post application (for post-emergence test), the test is evaluated by assessing the percentage damage caused to the plants in comparison with the untreated plots. The biological activities for post-emergence testing are shown below (Table 3) as a % visual injury.

[2] = system: Echinochloa crus-galli (ECHCG)
Description: as §1, §2

[3] = system: Lolium multiflorum (LOLMU)
Description: as §1, §2

Veronica persica (VERPE) = system: Veronica persica (VERPE)
Description: as §1, §2

Structure (SMILES) | pest or weed control at 500 g/ha [1] | pest or weed control at 500 g/ha [2] | pest or weed control at 500 g/ha [3] | pest or weed control at 500 g/ha (Veronica persica (VERPE)) | other results
CCC(Oc1ccccc1F)C(=O)Nc1nnc(C(F)(F)F)[nH]1 (centres unmarked) [Compound 19] | 0% | 0% | 0% | 20% | –
Cn1ccc2c(OCC(=O)Nc3nc(C(F)(F)F)n[nH]3)cccc21 [Compound 91] | 0% | 0% | 0% | 70% | –
Cc1cccc(C)c1OCC(=O)Nc1nnc(C(F)(F)F)[nH]1 [Compound 100] | 0% | 0% | 0% | 20% | –
O=C(COc1ccc(Cl)cc1Cl)Nc1nnc(C(F)(F)F)o1 [Compound 97] | – | – | – | – | pest or weed control at 125 g/ha ([1]; rate 125 g/ha): 100%; pest or weed control at 125 g/ha ([2]; rate 125 g/ha): 0%; pest or weed control at 125 g/ha ([3]; rate 125 g/ha): 0%; pest or weed control at 125 g/ha (Veronica persica (VERPE); rate 125 g/ha): 100%
COc1nnc(NC(=O)COc2ccc(F)cc2Cl)[nH]1 [Compound 99] | – | – | – | – | pest or weed control at 250 g/ha [1]: 50%; pest or weed control at 250 g/ha [2]: 0%; pest or weed control at 250 g/ha [3]: 0%; pest or weed control at 250 g/ha (Veronica persica (VERPE)): 50%
CCn1cnnc1NC(=O)COc1cccc(C(F)(F)F)c1 [Compound 102] | 50% | 70% | 0% | 7% | –
O=C(COc1ccc(Cl)c(F)c1)Nc1nnc(C(F)(F)F)[nH]1 [Compound 16, 2-(4-chloro-3-fluorophenoxy)-N-[5-(trifluoromethyl)-4H-1,2,4-triazol-3-yl]acetamide] | 100% | 20% | 0% | 70% | –
O=C(COc1nc(Cl)c(Cl)cc1Cl)Nc1nnc(C(F)(F)F)[nH]1 [Compound 37] | 80% | 60% | 5% | 30% | –
CCC(Oc1ccccc1Cl)C(=O)Nc1nnc(C(F)(F)F)[nH]1 (centres unmarked) [Compound 12] | 70% | 10% | 0% | 60% | –
Cn1nc(C(F)(F)F)nc1NC(=O)COc1ccc(F)cc1Cl [Compound 41, 2-(2-chloro-4-fluorophenoxy)-N-[1-methyl-3-(trifluoromethyl)-1H-1,2,4-triazol-5-yl]acetamide] | 95% | 60% | 40% | 70% | –
O=C(COc1ccc(F)cc1Cl)Nc1n[nH]c(C2CCC2)n1 [Compound 22] | 100% | 90% | 40% | 90% | –
CN(C(=O)COc1ccc(F)cc1Cl)c1nc(C(F)(F)F)nn1C [Compound 42, 2-(2-chloro-4-fluorophenoxy)-N-methyl-N-[1-methyl-3-(trifluoromethyl)-1H-1,2,4-triazol-5-yl]acetamide] | 90% | 60% | 40% | 60% | –
O=C(COc1ccc(Cl)cc1Cl)Nc1nnc(-c2ccc(F)cc2)[nH]1 [Compound 96] | 90% | 30% | 0% | 90% | –
O=C(COc1ccc(F)cc1F)Nc1nnc(C(F)(F)F)[nH]1 [Compound 10, 2-(2,4-difluorophenoxy)-N-[5-(trifluoromethyl)-4H-1,2,4-triazol-3-yl]acetamide] | 40% | 30% | 0% | 80% | –
CN(C)c1n[nH]c(NC(=O)COc2ccc(F)cc2Cl)n1 [Compound 24] | 70% | 70% | 0% | 50% | –
O=C(COc1ccc(F)c(Cl)c1)Nc1nnc(C(F)(F)F)[nH]1 [Compound 5] | 80% | 30% | 0% | 98% | –
COCc1n[nH]c(NC(=O)COc2ccc(F)cc2Cl)n1 [Compound 3] | 100% | 90% | 60% | 90% | –
O=C(COc1ccc(F)cc1Cl)Nc1nnc(C(F)F)[nH]1 [Compound 14] | 100% | 90% | 60% | 60% | –
Cc1ccc(OCC(=O)Nc2nnc(C(F)(F)F)[nH]2)c(Br)c1 [Compound 15] | 0% | 0% | 0% | 50% | –

Structure (SMILES) | pest or weed control at 500 g/ha [1] | pest or weed control at 500 g/ha [2] | pest or weed control at 500 g/ha [3] | pest or weed control at 500 g/ha (Veronica persica (VERPE)) | other results
O=C(COc1ccc(F)cc1Cl)Nc1nnc(N2CCCC2)[nH]1 [Compound 6] | 50% | 20% | 0% | 50% | –
O=C(COc1cccc(Br)c1)Nc1nnc(C(F)(F)F)[nH]1 [Compound 21] | 0% | 0% | 20% | 60% | –
CC(Oc1cccc(Cl)c1)C(=O)Nc1nnn[nH]1 (centres unmarked) [Compound 98] | – | – | – | – | pest or weed control at 250 g/ha [1]: 0%; pest or weed control at 250 g/ha [2]: 0%; pest or weed control at 250 g/ha [3]: 10%; pest or weed control at 250 g/ha (Veronica persica (VERPE)): 20%
Cc1ccc(OCC(=O)Nc2nnc(C(F)(F)F)[nH]2)cc1 [Compound 20] | 0% | 30% | 0% | 40% | –
O=C(COc1ccccc1-n1cnnc1)Nc1nc(C(F)(F)F)n[nH]1 [Compound 92] | 0% | 0% | 0% | 70% | –
O=C(COc1c(Cl)cccc1Cl)Nc1nnc(C(F)(F)F)[nH]1 [Compound 9] | 20% | 0% | 0% | 0% | –
Cc1cccc(Cl)c1OCC(=O)Nc1nnc(C(F)(F)F)[nH]1 [Compound 18] | 0% | 0% | 0% | 70% | –
CC(C)(C)c1nc(NC(=O)COc2ccc(F)cc2Cl)n[nH]1 [Compound 7] | 60% | 80% | 40% | 60% | –
O=C(COc1cccc(C(F)(F)F)c1)Nc1nnc(C(F)(F)F)[nH]1 [Compound 4] | 99% | 20% | 0% | 80% | –
Cn1c(NC(=O)COc2ccc(F)cc2Cl)nnc1C(F)(F)F [Compound 40] | 100% | 70% | 60% | 100% | –
O=C(COc1ccc2c(c1)NC(=O)CC2)Nc1nc(C(F)(F)F)n[nH]1 [Compound 90] | 0% | 0% | 0% | 70% | –
Nc1c(Cl)c(F)nc(OCC(=O)Nc2nnc(C(F)(F)F)[nH]2)c1Cl [Compound 38] | 100% | 0% | 30% | 98% | –
O=C(COc1ccc(Br)cc1F)Nc1nnc(C(F)(F)F)[nH]1 [Compound 17] | 60% | 0% | 0% | 70% | –
CC(C)c1nnc(NC(=O)COc2ccc(F)cc2Cl)[nH]1 [Compound 23, 2-(2-chloro-4-fluorophenoxy)-N-[5-(propan-2-yl)-4H-1,2,4-triazol-3-yl]acetamide] | 100% | 90% | 40% | 100% | –
O=C(COc1cc(Cl)c(Cl)cc1Cl)Nc1nnc(C(F)(F)F)[nH]1 [Compound 39] | 80% | 0% | 0% | 50% | –
Cc1ccccc1OCCCC(=O)Nc1nnc(C(F)(F)F)[nH]1 [Compound 89] | 40% | 0% | 0% | 95% | –
O=C(COc1ccc(F)cc1Cl)Nc1nnc(-c2cccc3ccccc23)[nH]1 [Compound 101] | 100% | 70% | 20% | 80% | –
CS(=O)(=O)c1ccc(OCC(=O)Nc2nnc(C(F)(F)F)[nH]2)cc1 [Compound 13] | 60% | 0% | 60% | 80% | –
O=C(COc1ccc(F)cc1Cl)Nc1n[nH]c(C2CC2)n1 [Compound 1] | 100% | 90% | 40% | 60% | –

Source: patent US20230255205A1, “HERBICIDAL HETEROCYCLIC DERIVATIVES” (MoA Technology Limited, priority 2020, published 2023)
